Legend:
[1] = test system: DLD-1 cells; assay: Soft agar assay, anchorage-independent colony growth; assay type: cell-based; conditions: DLD-1 human colorectal carcinoma cells in soft agar, three weeks
Experimental: The Example 2, 3, 4 and 9 compounds were compared to the COX-2 inhibitor celecoxib in inhibiting the growth of DLD-1 cells in soft agar. DLD-1 cells are human colorectal carcinoma cells that overexpress COX-2. DLD-1 cells grow in soft agar and form tumors in nude mice. The soft agar assay was performed as follows. Bottom agar was first prepared as a 3 mL layer of 0.8% noble agar prepared in complete growth medium (DMEM containing 10% FBS and 500 units of penicillin-streptomycin) and placed into 60 mm^2 tissue culture dishes. The tumor cells were trypsinized from normal growth flasks while in exponential growth. The cells were counted by using a hemacytometer and 5.0×10^4 viable cells were mixed with 0.4% noble agar containing growth medium and various concentrations of drugs. Non-treated control plates received DMSO alone. Each drug concentration was run in duplicate. The concentration range was normally between 10 μM to 75 μM. The plates were incubated at 37° C. under 95% humidity for three weeks and stained with a 0.05% (w/v) nitroblue tetrazolium solution. This solution will only stain viable cells so that all growing cell in the form of colonies will appear blue. The plates were photographed using an Olympus stereoscope mounted with a SONY digital camera system.

[2] = test system: HT29; assay: In vitro cytotoxicity assay (trypan exclusion, viable cell count); assay type: cell-based; conditions: HT-29; HT29 human colo-rectal carcinoma, 96 hours
Experimental: (§1) The human colo-rectal carcinoma cell lines DLD-1, HT29, and HCT 116, and the human prostate carcinoma cell line DU145, were grown exponentially and plated onto 6 well dishes at a cell density of 1.0×10^5 cells per 35 mm well. Various concentration of 4-bromobenzaldehyde-4-sulfamylphenylhydrazone (Ex. 4) or DMSO were added 24 hours later. The number of viable cells were determined at each concentration tested 96 hours later by trypan exclusion using a hemacytometer. The GI50 (concentration of drug that inhibits 50% of tumor cell growth when compared to tumor cells treated with same volume of DMSO) was determined for each cell line.
The same protocol was used to compare the growth inhibitory activity of 4-bromobenzaldehyde-4-sulfamylphenylhydrazone and celecoxib against the human colo-rectal tumor cell line HT29. The data are plotted as the percent of viable cells remaining as compared to DMSO (non-treated) cells.

[3] = Bioavailability assay, plasma drug concentration after intraperitoneal injection; assay type: in vivo; conditions: mice; for concentration at 120 min: mouse, plasma, ip, 120 minutes post injection
Experimental: The bioavailability of compound of Example 4 was examined as follows. Mice received a single dose (25 or 50 mg/kg) of compound suspended in DMSO via intraperitoneal injection. Plasma drug concentration was measured 120 minutes post injection.

[4] = test system: DLD-1; assay: In vitro cytotoxicity assay (trypan exclusion, viable cell count); assay type: cell-based; conditions: DLD-1 human colo-rectal carcinoma, 96 hours
Experimental: as §1

[5] = test system: HCT116; assay: as above; assay type: cell-based; conditions: HCT-116; HCT116 human colo-rectal carcinoma, 96 hours
Experimental: as §1

[6] = test system: DU145; assay: as above; assay type: cell-based; conditions: DU-145; DU145 human prostate carcinoma, 96 hours
Experimental: as §1

[7] = test system: mice; assay: In vivo toxicity assay, survival after intraperitoneal dosing; conditions: survival at seven days
Experimental: The compound of Example 4 was examined for in vivo toxicity in mice. Mice received intraperitoneal doses of compound suspended in DMSO, ranging from 25 to 400 mg/kg. Survival at seven days was determined.

NS(=O)(=O)c1ccc(NN=Cc2ccc(Cl)cc2)cc1 [Example 3, 4-Chlorobenzaldehyde-4-sulfamylphenylhydrazone]
Concentration Required for Complete DLD-1 Colony Growth Inhibition [1]: 20 µM

NS(=O)(=O)c1ccc(NN=Cc2ccc(F)cc2)cc1 [Example 2, 4-Fluorobenzaldehyde-4-sulfamylphenylhydrazone]
Concentration Required for Complete DLD-1 Colony Growth Inhibition [1]: 30 µM

NS(=O)(=O)c1ccc(NN=Cc2ccc(Br)cc2)cc1 [Example 4, 4-Bromobenzaldehyde-4-sulfamylphenylhydrazone]
Concentration Required for Complete DLD-1 Colony Growth Inhibition [1]: <20 µM | Concentration Required for Complete DLD-1 Colony Growth Inhibition ([1]; listed as Ex. 4): 20 µM | GI50 [2]: 8 µM | Bioavailability (in words) ([3]; single dose 25 or 50 mg/kg intraperitoneal): high level of bioavailability | concentration at 120 min ([3]; single dose 25 mg/kg intraperitoneal): 38 µg/mL | concentration at 120 min ([3]; single dose 50 mg/kg intraperitoneal): 165 µg/mL | GI50 [4]: 30 µM | GI50 [5]: 30 µM | GI50 [6]: 30 µM | Percent Survival of Mice ([7]; 25 mg/kg intraperitoneal): 100% | Percent Survival of Mice ([7]; 50 mg/kg intraperitoneal): 100% | Percent Survival of Mice ([7]; 100 mg/kg intraperitoneal): 100% | Percent Survival of Mice ([7]; 200 mg/kg intraperitoneal): 100% | Percent Survival of Mice ([7]; 400 mg/kg intraperitoneal): 80% | In vivo toxicity in mice (in words) ([7]; intraperitoneal doses 25 to 400 mg/kg): very low mammalian toxicity

Cc1ccc(-c2cc(C(F)(F)F)nn2-c2ccc(S(N)(=O)=O)cc2)cc1 [celecoxib, reference compound]
GI50 [2]: 25 µM

COc1ccc(C=NNc2ccc(S(N)(=O)=O)cc2)cc1 [Example 9, 4-Methoxybenzaldehyde-4-sulfamylphenylhydrazone]
Concentration Required for Complete DLD-1 Colony Growth Inhibition [1]: >75 µM

— US20030187035A1, “Substituted hydrazones as inhibitors of cyclooxygenase-2” (priority 2001, published 2003)
